Results from patent publication US9758529B2, “Fused dihydro-4H-pyrazolo[5,1-C][1,4]oxazinyl compounds and analogs for treating CNS disorders” (Sunovion Pharmaceuticals Inc., priority 2015, dated 2017).

Test system: mice
Assay: Neuropharmacological Assay (SmartCube)
Assay type: in vivo
Conditions: i.p. 15 min before behavioral test; 3 doses, most efficacious dose(s) presented

SMILES	AD: ADHD (probability of class match)	AG: analgesic (probability of class match)	AX: anxiolytic (probability of class match)	CE: cognitive enhancer (probability of class match)	DP: anti-depressant (probability of class match)	HA: hallucinogen (probability of class match)	MS: mood stabilizer (probability of class match)	PS: anti-psychotic (probability of class match)	SD: sedative hypnotic (probability of class match)	UN: uncharacterized CNS activity (probability of class match)	XG: anxiogenic (probability of class match)
CC1(CN)OCCn2nc3ccccc3c21.Cl (stereo not drawn) [Compound 39, (1-methyl-3,4-dihydro-1H-[1,4]oxazino[4,3-b]indazol-1-yl)methanaminium chloride]	+ (LOQ≦ + <5%)	+ (LOQ≦ + <5%)	++ (5%≦ ++ <25%)	+ (LOQ≦ + <5%)	++ (5%≦ ++ <25%)	+ (LOQ≦ + <5%)	+ (LOQ≦ + <5%)	+ (LOQ≦ + <5%)	+ (LOQ≦ + <5%)	+ (LOQ≦ + <5%)	+ (LOQ≦ + <5%)
c1ccc2c3n(nc2c1)CCOC31CNC1 [Compound 40, 3′,4′-dihydrospiro[azetidine-3,1′-[1,4]oxazino[4,3-b]indazol]-1-ium chloride]	+ (LOQ≦ + <5%)	++ (5%≦ ++ <25%)	+++ (25%≦ +++ <50%)	++ (5%≦ ++ <25%)	++ (5%≦ ++ <25%)	+ (LOQ≦ + <5%)	+ (LOQ≦ + <5%)	++ (5%≦ ++ <25%)	++ (5%≦ ++ <25%)	+ (LOQ≦ + <5%)	+ (LOQ≦ + <5%)
Cl.N[C@H](CC1CCC1)C1OCCn2nc3ccccc3c21 (stereo partly drawn) [Compound 41, (1R)-2-cyclobutyl-1-(3,4-dihydro-1H-[1,4]oxazino[4,3-b]indazol-1-yl)ethan-1-aminium]	+ (LOQ≦ + <5%)	+ (LOQ≦ + <5%)	+ (LOQ≦ + <5%)	+ (LOQ≦ + <5%)	+ (LOQ≦ + <5%)	+ (LOQ≦ + <5%)	+ (LOQ≦ + <5%)	+ (LOQ≦ + <5%)	+ (LOQ≦ + <5%)	+ (LOQ≦ + <5%)	+ (LOQ≦ + <5%)
Cl.c1ccc2c3n(nc2c1)CCOC3[C@H]1CNCCO1 (stereo partly drawn) [Compound 42, (2R)-2-(3,4-dihydro-1H-[1,4]oxazino[4,3-b]indazol-1-yl)morpholin-4-ium chloride]	+ (LOQ≦ + <5%)	+ (LOQ≦ + <5%)	+ (LOQ≦ + <5%)	+ (LOQ≦ + <5%)	+ (LOQ≦ + <5%)	+ (LOQ≦ + <5%)	+ (LOQ≦ + <5%)	+ (LOQ≦ + <5%)	+ (LOQ≦ + <5%)	+ (LOQ≦ + <5%)	+ (LOQ≦ + <5%)
Cl.c1ccc2c3n(nc2c1)CCOC3[C@@H]1COCCN1 (stereo partly drawn) [Compound 43, (3S)-3-(3,4-dihydro-1H-[1,4]oxazino[4,3-b]indazol-1-yl)morpholin-4-ium chloride]	+ (LOQ≦ + <5%)	+ (LOQ≦ + <5%)	+ (LOQ≦ + <5%)	+ (LOQ≦ + <5%)	+ (LOQ≦ + <5%)	+ (LOQ≦ + <5%)	+ (LOQ≦ + <5%)	+ (LOQ≦ + <5%)	+ (LOQ≦ + <5%)	+ (LOQ≦ + <5%)	+ (LOQ≦ + <5%)
Cl.c1ccc2c3n(nc2c1)CCOC31CCNC1 (stereo not drawn) [Compound 44, 3′,4′-dihydrospiro[pyrrolidine-3,1′-[1,4]oxazino[4,3-b]indazol]-1-ium chloride]	+ (LOQ≦ + <5%)	++ (5%≦ ++ <25%)	+++ (25%≦ +++ <50%)	++ (5%≦ ++ <25%)	++ (5%≦ ++ <25%)	+ (LOQ≦ + <5%)	+ (LOQ≦ + <5%)	++ (5%≦ ++ <25%)	+ (LOQ≦ + <5%)	+ (LOQ≦ + <5%)	+ (LOQ≦ + <5%)
CCN(C)C[C@@H]1OCCn2nc3ccccc3c21.Cl [Compound 49, N—(((S)-3,4-dihydro-1H-[1,4]oxazino[4,3-b]indazol-1-yl)methyl)-N-methylethanaminium chloride]	+ (LOQ≦ + <5%)	+++ (25%≦ +++ <50%)	++ (5%≦ ++ <25%)	++ (5%≦ ++ <25%)	++ (5%≦ ++ <25%)	+ (LOQ≦ + <5%)	+ (LOQ≦ + <5%)	+ (LOQ≦ + <5%)	++ (5%≦ ++ <25%)	+ (LOQ≦ + <5%)	+ (LOQ≦ + <5%)
CCN(C)C[C@H]1OCCn2nc3ccccc3c21.Cl [Compound 50, N—(((R)-3,4-dihydro-1H-[1,4]oxazino[4,3-b]indazol-1-yl)methyl)-N-methylethanaminium chloride]	++ (5%≦ ++ <25%)	+ (LOQ≦ + <5%)	+++ (25%≦ +++ <50%)	+ (LOQ≦ + <5%)	++++ (50%≦ ++++)	++ (5%≦ ++ <25%)	+ (LOQ≦ + <5%)	+ (LOQ≦ + <5%)	+ (LOQ≦ + <5%)	+ (LOQ≦ + <5%)	+ (LOQ≦ + <5%)
CNCC1OCCCn2nc3ccccc3c21.Cl (stereo not drawn) [Compound 51, 1-(4,5-dihydro-1H,3H-[1,4]oxazepino[4,3-b]indazol-1-yl)-N-methylmethanaminium chloride]	++ (5%≦ ++ <25%)	+ (LOQ≦ + <5%)	++ (5%≦ ++ <25%)	+ (LOQ≦ + <5%)	+++ (25%≦ +++ <50%)	+ (LOQ≦ + <5%)	+ (LOQ≦ + <5%)	+ (LOQ≦ + <5%)	+ (LOQ≦ + <5%)	+ (LOQ≦ + <5%)	+ (LOQ≦ + <5%)
CN(C)CC1OCCCn2nc3ccccc3c21.Cl (stereo not drawn) [Compound 52, 1-(4,5-dihydro-1H,3H-[1,4]oxazepino[4,3-b]indazol-1-yl)-N,N-dimethylmethanaminium chloride]	+ (LOQ≦ + <5%)	+ (LOQ≦ + <5%)	++ (5%≦ ++ <25%)	+ (LOQ≦ + <5%)	++ (5%≦ ++ <25%)	+ (LOQ≦ + <5%)	+ (LOQ≦ + <5%)	+ (LOQ≦ + <5%)	+ (LOQ≦ + <5%)	++ (5%≦ ++ <25%)	+ (LOQ≦ + <5%)
CCN(C)CC1OCCCn2nc3ccccc3c21.Cl (stereo not drawn) [Compound 53, N-((4,5-dihydro-1H,3H-[1,4]oxazepino[4,3-b]indazol-1-yl)methyl)-N-methylethanaminium chloride]	+ (LOQ≦ + <5%)	+ (LOQ≦ + <5%)	++ (5%≦ ++ <25%)	+ (LOQ≦ + <5%)	++ (5%≦ ++ <25%)	+ (LOQ≦ + <5%)	+ (LOQ≦ + <5%)	+ (LOQ≦ + <5%)	++ (5%≦ ++ <25%)	++ (5%≦ ++ <25%)	+ (LOQ≦ + <5%)
CC(C)N(C)CC1OCCCn2nc3ccccc3c21.Cl (stereo not drawn) [Compound 54, N-((4,5-dihydro-1H,3H-[1,4]oxazepino[4,3-b]indazol-1-yl)methyl)-N-methylpropan-2-aminium chloride]	+ (LOQ≦ + <5%)	+ (LOQ≦ + <5%)	++ (5%≦ ++ <25%)	+ (LOQ≦ + <5%)	+ (LOQ≦ + <5%)	+ (LOQ≦ + <5%)	+ (LOQ≦ + <5%)	+ (LOQ≦ + <5%)	+ (LOQ≦ + <5%)	+ (LOQ≦ + <5%)	+ (LOQ≦ + <5%)
